Columns and labels:
AK8 = target: T1, AK8 (Homo sapiens, UniProt Q96MA6); assay: AMP-agarose pull-down, anti-FLAG immunoblot; type: binding; conditions: AMP immobilised on agarose, preferentially the αAH-AMP resin; 500 mM NaCl lysis buffer; labelled compound
T1 sequence (Q96MA6 1-479): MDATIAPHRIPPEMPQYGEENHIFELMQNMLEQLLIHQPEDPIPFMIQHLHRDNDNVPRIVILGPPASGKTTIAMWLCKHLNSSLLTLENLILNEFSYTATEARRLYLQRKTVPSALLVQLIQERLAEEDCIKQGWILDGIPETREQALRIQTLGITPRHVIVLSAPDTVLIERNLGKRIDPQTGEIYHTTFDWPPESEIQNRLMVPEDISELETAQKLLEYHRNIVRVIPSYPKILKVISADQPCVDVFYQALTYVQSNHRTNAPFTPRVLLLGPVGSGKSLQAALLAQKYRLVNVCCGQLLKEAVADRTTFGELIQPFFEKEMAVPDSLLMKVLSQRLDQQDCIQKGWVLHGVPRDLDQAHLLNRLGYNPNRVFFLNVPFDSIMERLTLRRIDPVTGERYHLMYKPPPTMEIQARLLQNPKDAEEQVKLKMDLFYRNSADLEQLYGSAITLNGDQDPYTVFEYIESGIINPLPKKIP

CFAP45 = target: T2, CFAP45 (Homo sapiens, UniProt Q9UL16); assay: AMP-agarose pull-down, immunoblot or silver stain; type: binding; conditions: AMP immobilised on agarose, best with the 6AH-AMP resin; sperm eluates released with 100 mM free 5'-AMP; 500 mM NaCl lysis buffer, pH 8.0, 4 °C; labelled compound
T2 construct: full length, 551 aa, 66 kDa
T2 sequence (Q9UL16 whole entry): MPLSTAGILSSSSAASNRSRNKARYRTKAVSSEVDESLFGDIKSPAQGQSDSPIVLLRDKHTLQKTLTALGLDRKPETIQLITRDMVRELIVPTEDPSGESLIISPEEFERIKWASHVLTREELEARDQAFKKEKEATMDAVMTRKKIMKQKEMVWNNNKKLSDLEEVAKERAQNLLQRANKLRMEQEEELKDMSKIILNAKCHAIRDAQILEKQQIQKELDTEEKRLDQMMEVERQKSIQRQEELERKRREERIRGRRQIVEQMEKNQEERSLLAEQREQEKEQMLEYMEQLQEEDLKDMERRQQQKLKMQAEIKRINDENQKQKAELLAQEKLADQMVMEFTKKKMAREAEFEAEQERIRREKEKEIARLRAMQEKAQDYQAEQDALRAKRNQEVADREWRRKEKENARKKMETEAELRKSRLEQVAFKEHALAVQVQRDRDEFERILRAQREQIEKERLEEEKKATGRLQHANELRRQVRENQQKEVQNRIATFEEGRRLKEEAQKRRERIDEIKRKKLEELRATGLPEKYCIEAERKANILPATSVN

Question: Which results are given for `Nc1ncnc2c1ncn2[C@@H]1O[C@H](COP(=O)(O)O)[C@@H](O)[C@H]1O` [AMP]?
Answer: AMP-agarose pull-down, anti-FLAG immunoblot (AK8): NTAP-AK8 shows affinity to αAH-AMP-agarose following elution and IB with monoclonal anti-FLAG antibody; AMP-agarose pull-down, immunoblot or silver stain (CFAP45): CFAP45 immunoprecipitates recovered from human sperm (see “Methods”) showed affinity to AMP, especially 6AH-AMP-agarose

Source: paper PMC7606486, “CFAP45 deficiency causes situs abnormalities and asthenospermia by disrupting an axonemal adenine nucleotide homeostasis module” (Nature Communications, 2020)
